Reference: patent US9023858B2, “Substituted pyrido[2,3-d]pyrimidines as delta-5-desaturase inhibitors” (Takeda Pharmaceutical Company Limited, priority 2010, dated 2015)

Columns and labels:
[1] = target: T1, delta-5-desaturase (Rattus norvegicus, UniProt Q920R3); assay: Inhibitory activity on binding of [3H]-labelled Reference Example 1 ligand to delta-5-desaturase (rat liver microsome fraction); details: test compound 10 μM, 3 nM tritiated ligand of Reference Example 1, read-out: Binding inhibitory activity against compound bind to delta-5-desaturase Binding inhibition rate (%) at 10 μM
T1 construct: a rat liver microsome fraction (10 μl) diluted to 3 mg/ml with a microsome buffer; from tissue; host or cells: rat liver microsome fraction
Description: Inhibitory Activity on Binding of N-[2-({4-oxo-3-[4-(2,2,2-trifluoroethoxy)[2,6-^3H2]phenyl]-3,4-dihydrothieno[3,4-d]pyrimidin-2-yl}sulfanyl)ethyl]acetamide (Reference Example 1) to delta-5-desaturase)
All tests were performed at room temperature at 200 μL/well. A rat liver microsome fraction (30 μg/well) was preincubated with a test compound at a final concentration of 10 μM for 15 min in an assay buffer (10 mM Tris-HCl (pH 7.5), 100 mM KCl, 10 mM NaF, 3 mM MgCl2, 0.005% Tween20 and 1 mM GSH). N-[2-({4-oxo-3-[4-(2,2,2-trifluoroethoxy) [2,6-^3H2]phenyl]-3,4-dihydrothieno[3,4-d]pyrimidin-2-yl}sulfanyl)ethyl]acetamide was added to a final concentration of 3 nM and the mixture was incubated for 150 min. For Bound/Free separation, the membrane fraction was added on a GF/C glass filter using a cell harvester. The GF/C glass filter was washed 5 times with 300 μl of ice-cooled assay buffer (without 0.005% Tween) to separate the ligand bound to delta-5-desaturase. 50 μl of MicroScinti 0 was added, and the radioactivity on the filter was measured by TopCount. To evaluate non-specific binding, 10 μM N-[2-({4-oxo-3-[4-(2,2,2-trifluoroethoxy)phenyl]-3,4-dihydrothieno[3,4-d]pyrimidin-2-yl}sulfanyl)ethyl]acetamide was used. The inhibitory rate (%) of the test compound (10 μM) on the binding of N-[2-({4-oxo-3-[4-(2,2,2-trifluoroethoxy) [2,6-^3H2]phenyl]-3,4-dihydrothieno[3,4-d]pyrimidin-2-yl}sulfanyl)ethyl]acetamide to delta-5-desaturase was determined.

[2] = target: T1, delta-5-desaturase; assay: Delta-5-desaturase inhibitory activity using rat liver microsome; type: biochemical; details: test compound 10 μM
Description: Delta-5-Desaturase Inhibitory Activity Using Rat Liver Microsome
The inhibitory activity of the test compound on delta-5-desaturase was measured by the method described below. To a solution of the test compound in DMSO prepared in advance was secondarily diluted with a buffer (300 mM NaH2PO4 [pH 7.4], 450 mM KCl, 30 mM NaF, 9 mM MgCl2, 4.5 mM glutathione [reduced form], 0.3% BSA [fatty acid free, SIGMA]) to give an assay buffer. The assay buffer (10 μl) was dispensed to a polypropylene deep 96-well block, and a rat liver microsome fraction (10 μl) diluted to 3 mg/ml with a microsome buffer (10 mM Tris-HCl [pH 7.4], 1 mM EDTA, 250 mM sucrose) was added. The enzyme reaction was started by adding 9 mM NADH, 9 mM ATP, 0.9 mM CoA, 10 μCi/ml (8E,11E,14E)-(1-^14C)eicosa-8,11,14-trienoic acid (PerkinElmer Inc.) (10 μl). The enzyme reaction was performed for 120 min at room temperature, and discontinued by the addition of 10 μl of 2.5M NaOH. After discontinuation of the reaction, the plate was sealed and incubated overnight at 55° C. to allow saponification. The fatty acid was extracted with solvent based on the Bligh & Dyer method described in Can. J. Biochem. Physiol., vol. 37, page 911 (1959) by adding formic acid:methanol:chloroform (1:6:3) (200 μl), maintaining the single layer state, sufficiently stirring the mixture and adding pure water (120 μl) for separation into two layers. The lower chloroform layer (10 μl) was spotted on a reversed-phase TLC plate (RP-18, 1154230001, Merck Japan, Ltd.), developed with acetonitrile:pure water:acetic acid (95:4.5:0.5), and the dried TLC plate was transcribed on Imaging Plate (Fuji Photo Film Co., Ltd.) for 5 hr or longer. The detection was performed using BAS-5000 (Fuji Photo Film Co., Ltd.), and the obtained spot image was numerically converted by Multi Gauge Ver2.3 (Fuji Photo Film Co., Ltd.) and a delta-5-desaturase inhibitory rate (%) of 10 μM test compound was determined.

[3] = target: T2, delta-5-desaturase (Homo sapiens, UniProt O60427); assay: Delta-5-desaturase inhibitory activity using HepG2 cell; type: cell-based; details: test compound 1 μM
T2 construct: endogenous in cells; host or cells: HepG2
Description: Delta-5-Desaturase Inhibitory Activity Using HepG2 Cell
HepG2 was plated on a 96-well plate at 1×10^5 cells/well, and cultured overnight in DMEM (Dulbecco's modified Eagle medium) containing 10% FBS (fetal bovine serum). After washing (200 μL×2) with PBS (phosphate buffered saline), 40 μL of a reaction medium (DMEM, penicillin/streptomycin, 0.3% BSA) containing the test compound was added, and the mixture was preincubated in a CO2 incubator at 37° C. for 30 min. The reaction was started by adding a reaction medium (20 μL) containing 0.1 μCi [^14C]Eicosatrienoic acid, and the mixture was incubated in a CO2 incubator at 37° C. Incubation was performed for 3 hr, the cells were washed twice with 200 μL of PBS, detached with 50 μL of trypsin-EDTA and placed on a 96-deep well block. Furthermore, 20 μL of 2.5N NaOH was added, the plate was sealed and incubated overnight at 55° C. to allow saponification. The fatty acid extraction included acidifying with 10 μL of formic acid, adding chloroform:methanol (1:4), stirring, and further adding 200 μL of pure water to separate into two layers. The operation after development with TLC followed the method of detection system using TLC in a system using a rat liver microsome. A delta-5-desaturase inhibitory rate (%) of 1 μM test compound was determined.

T1 sequence (Q920R3 whole entry): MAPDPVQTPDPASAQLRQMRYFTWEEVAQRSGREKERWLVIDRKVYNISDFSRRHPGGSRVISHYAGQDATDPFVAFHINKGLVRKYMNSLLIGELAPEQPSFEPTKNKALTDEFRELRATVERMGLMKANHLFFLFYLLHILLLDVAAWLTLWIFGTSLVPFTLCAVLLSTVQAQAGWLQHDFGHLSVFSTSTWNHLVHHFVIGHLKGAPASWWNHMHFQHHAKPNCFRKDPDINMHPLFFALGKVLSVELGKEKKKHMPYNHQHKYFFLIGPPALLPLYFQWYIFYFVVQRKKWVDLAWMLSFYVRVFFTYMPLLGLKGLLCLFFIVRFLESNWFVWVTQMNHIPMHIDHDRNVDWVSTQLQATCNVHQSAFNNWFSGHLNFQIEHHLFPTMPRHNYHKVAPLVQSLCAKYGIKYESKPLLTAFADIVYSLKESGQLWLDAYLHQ
T2 sequence (O60427 whole entry): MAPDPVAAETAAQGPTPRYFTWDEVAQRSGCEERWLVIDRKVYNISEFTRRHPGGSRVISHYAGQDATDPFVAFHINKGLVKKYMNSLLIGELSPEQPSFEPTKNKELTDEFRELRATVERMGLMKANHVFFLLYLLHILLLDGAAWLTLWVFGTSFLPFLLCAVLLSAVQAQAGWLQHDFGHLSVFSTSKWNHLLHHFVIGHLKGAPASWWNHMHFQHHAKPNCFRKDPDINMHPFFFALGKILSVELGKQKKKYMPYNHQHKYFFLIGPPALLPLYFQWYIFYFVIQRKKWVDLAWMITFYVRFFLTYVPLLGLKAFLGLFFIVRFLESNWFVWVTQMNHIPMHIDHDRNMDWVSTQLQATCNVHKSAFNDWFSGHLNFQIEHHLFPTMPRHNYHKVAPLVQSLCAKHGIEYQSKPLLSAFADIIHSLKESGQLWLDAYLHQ

SMILES | inhibition at 10 µM [1] | inhibition at 10 µM [2] | inhibition at 1 µM [3]
CCSc1nc2nc(C(N)=O)ccc2c(=O)n1-c1ccc(OCC(F)(F)F)cc1 [Example 27, 2-(ethylsulfanyl)-4-oxo-3-[4-(2,2,2-trifluoroethoxy)phenyl]-3,4-dihydropyrido[2,3-d]pyrimidine-7-carboxamide] | 93% | 97% | 98%
CCSc1nc2c(c(=O)n1-c1ccc(OCC(F)(F)F)cc1)CCNC2=O [Example 28, 2-(ethylsulfanyl)-3-[4-(2,2,2-trifluoroethoxy)phenyl]-3,5,6,7-tetrahydropyrido[3,4-d]pyrimidine-4,8-dione] | 92% | 92% | 89%
CCSc1nc2c(=O)[nH]ccc2c(=O)n1-c1ccc(OCC(F)(F)F)cc1 [Example 29, 2-(ethylsulfanyl)-3-[4-(2,2,2-trifluoroethoxy)phenyl]-3,7-dihydropyrido[3,4-d]pyrimidine-4,8-dione] | 97% | 99% | 96%
CCCSc1nc2c(=O)[nH]ccc2c(=O)n1-c1ccc(OCC(F)(F)F)cc1 [Example 30, 2-(propylsulfanyl)-3-[4-(2,2,2-trifluoroethoxy)phenyl]-3,7-dihydropyrido[3,4-d]pyrimidine-4,8-dione] | 97% | 97% | 96%
O=c1[nH]ccc2c(=O)n(-c3ccc(OCC(F)(F)F)cc3)c(OCC(F)(F)F)nc12 [Example 31, 2-(2,2,2-trifluoroethoxy)-3-[4-(2,2,2-trifluoroethoxy)phenyl]-3,7-dihydropyrido[3,4-d]pyrimidine-4,8-dione] | 98% | 96% | 96%
CCOc1nc2c(=O)[nH]ccc2c(=O)n1-c1ccc(OCC(F)(F)F)cc1 [Example 32, 2-ethoxy-3-[4-(2,2,2-trifluoroethoxy)phenyl]-3,7-dihydropyrido[3,4-d]pyrimidine-4,8-dione] | 98% | 96% | 88%
CCSc1nc2c(OC)nccc2c(=O)n1-c1ccc(OCC(F)(F)F)cc1 [Example 33, 2-(ethylsulfanyl)-8-methoxy-3-[4-(2,2,2-trifluoroethoxy)phenyl]pyrido[3,4-d]pyrimidin-4(3H)-one] | 96% | 101% | 93%

Second part, the compound after the results:

inhibition at 10 µM [1] | inhibition at 10 µM [2] | inhibition at 1 µM [3] | SMILES
88% | 98% | 93% | CCOc1nc2c(OCCOC)nccc2c(=O)n1-c1ccc(OCC(F)(F)F)cc1 [Example 34, 2-ethoxy-8-(2-methoxyethoxy)-3-[4-(2,2,2-trifluoroethoxy)phenyl]pyrido[3,4-d]pyrimidin-4(3H)-one]
89% | 91% | 91% | COCCOc1nccc2c(=O)n(-c3ccc(OCC(F)(F)F)cc3)c(OCCOC)nc12 [Example 35, 2,8-bis(2-methoxyethoxy)-3-[4-(2,2,2-trifluoroethoxy)phenyl]pyrido[3,4-d]pyrimidin-4(3H)-one]
101% | 101% | 92% | CCSc1nc2c(=O)n(C)ccc2c(=O)n1-c1ccc(OCC(F)(F)F)cc1 [Example 36, 2-(ethylsulfanyl)-7-methyl-3-[4-(2,2,2-trifluoroethoxy)phenyl]-3,7-dihydropyrido[3,4-d]pyrimidine-4,8-dione]
97% | 99% | 93% | CCSc1nc2nc(OC)cnc2c(=O)n1-c1ccc(OCC(F)(F)F)cc1 [Example 37, 2-(ethylsulfanyl)-7-methoxy-3-[4-(2,2,2-trifluoroethoxy)phenyl]pteridin-4(3H)-one]
91% | 95% | 76% | CCSc1nc2[nH]c(=O)cnc2c(=O)n1-c1ccc(OCC(F)(F)F)cc1 [Example 38, 2-(ethylsulfanyl)-3-[4-(2,2,2-trifluoroethoxy)phenyl]pteridine-4,7(3H,8H)-dione]
